From article PMC5515969, “Effects of 31 FDA approved small-molecule kinase inhibitors on isolated rat liver mitochondria” (Archives of Toxicology, 2016)
Like-named read-outs stand apart in the source and are kept apart here.

Tests used:
[1] = tested on: isolated rat liver mitochondria; test: Mitochondrial oxygen consumption (glutamate/malate or succinate driven, state 4 and state 3); type: biochemical; settings: DMSO treated samples set as 1; for State 3 respiration driven by succinate at 10XCmax: key: 0 indicates that the drug had no effects (negative); for State 3 respiration driven by succinate at 1XCmax: key: 0 indicates that the drug had no effects (negative)
Summary of the method: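 Oxygen uptake on glutamate/malate or on succinate defined state 4; ADP added 3 min later gave state 3. Mitochondria isolated from rat liver by differential centrifugation, adjusted to 1 mg/ml and pretreated 5 min with inhibitor (0.1% DMSO final). Values relative to DMSO control, set to 1.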

[2] = tested on: isolated rat liver mitochondria; test: Mitochondrial inner membrane potential (MMP), Rhodamine 123; type: biochemical; settings: difference in signal between KI and DMSO treated samples at the end of experiments
Source text: Fig. 3 KI effects on mitochondrial inner membrane potential (MMP). […] In a, c, data are means and standard derivations from three separate experiments. *p < 0.05 as compared to DMSO-treated samples at the end of experiments. In b, data are means of two independent experiments

[3] = tested on: isolated rat liver mitochondria; test: Mitochondrial swelling (absorbance at 535 nm); type: biochemical; settings: difference in signal between KI and DMSO treated samples at the end of experiments; for Swelling 5XCmax: key: 0 indicates that the drug had no effects (negative)
RCC IV = RCC IV activity in submitochondrial particles; type: biochemical, rat; set-up: key to RCC IV at 50XCmax / RCC IV at 100XCmax: activity relative to DMSO-treated controls (control set as 1 = 100%); settings: 50XCmax; DMSO treated samples set as 1; in %
Summary of the method: (§1)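 Absorbance kinetics: A340 (RCC I, V) and A600 (RCC II) read each minute over 6 min, A550 (RCC III, IV) every 10 s over 2 min; RCC I taken as […]. Particles (1 mg/ml) pretreated 15 min with compound; DMSO-treated activity = 1.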

RCC III = RCC III activity in submitochondrial particles; type: biochemical, rat; set-up: key to RCC III at 100XCmax: activity relative to DMSO-treated controls (control set as 1 = 100%); settings: 100XCmax
Summary of the method: as §1

[4] = tested on: isolated rat liver mitochondria; settings: positive control alamethicin treated samples
[5] = tested on: isolated rat liver mitochondria; test: Mitochondrial ROS production (CM-H2DCFDA); settings: DMSO treated samples set as 1
[6] = cited from earlier work
[7] = read-out: Cmax at µM; human therapeutic maximal blood concentration; ref product labeling; cited from earlier work

With `CC(=O)Nc1cccc(-n2c(=O)n(C3CC3)c(=O)c3c(Nc4ccc(I)cc4F)n(C)c(=O)c(C)c32)c1` [Trametinib] the “State 3 respiration driven by glutamate/malate at 1XCmax” value ([1]; 1XCmax) was 0, the “State 3 respiration driven by succinate at 1XCmax” value ([1]; 1XCmax) was 0 and the “State 4 respiration driven by glutamate/malate at 1XCmax” value ([1]; 1XCmax) was 0. For the same molecule, the “State 4 respiration driven by succinate at 1XCmax” value ([1]; 1XCmax) was 0, the “State 3 respiration driven by glutamate/malate at 2.5XCmax” value ([1]; 2.5XCmax) was 0 and the “State 3 respiration driven by succinate at 2.5XCmax” value ([1]; 2.5XCmax) was 0. The “State 4 respiration driven by glutamate/malate at 2.5XCmax” value ([1]; 2.5XCmax) was 0, the “State 4 respiration driven by succinate at 2.5XCmax” value ([1]; 2.5XCmax) was 0 and the “State 3 respiration driven by glutamate/malate at 5XCmax” value ([1]; 5XCmax) was 0. The “State 3 respiration driven by succinate at 5XCmax” value ([1]; 5XCmax) was 0, the “State 4 respiration driven by glutamate/malate at 5XCmax” value ([1]; 5XCmax) was 0 and the “State 4 respiration driven by succinate at 5XCmax” value ([1]; 5XCmax) was 0. For the same molecule, the “State 3 respiration driven by glutamate/malate at 10XCmax” value ([1]; 10XCmax) was 0, the “State 3 respiration driven by succinate at 10XCmax” value ([1]; 10XCmax) was 0 and the “State 4 respiration driven by glutamate/malate at 10XCmax” value ([1]; 10XCmax) was 0. For the same molecule, the “State 4 respiration driven by succinate at 10XCmax” value ([1]; 10XCmax) was 0, the “State 3 respiration driven by glutamate/malate at 20XCmax” value ([1]; 20XCmax) was 0 and the “State 3 respiration driven by succinate at 20XCmax” value ([1]; 20XCmax) was 0. The “State 4 respiration driven by glutamate/malate at 20XCmax” value ([1]; 20XCmax) was 0, the “State 4 respiration driven by succinate at 20XCmax” value ([1]; 20XCmax) was 0 and the “State 3 respiration driven by glutamate/malate at 30XCmax” value ([1]; 30XCmax) was 0. The “State 3 respiration driven by succinate at 30XCmax” value ([1]; 30XCmax) was 0, the “State 4 respiration driven by glutamate/malate at 30XCmax” value ([1]; 30XCmax) was 0 and the “State 4 respiration driven by succinate at 30XCmax” value ([1]; 30XCmax) was 0. For the same molecule, the “State 3 respiration driven by glutamate/malate at 50XCmax” value ([1]; 50XCmax) was 0, the “State 3 respiration driven by succinate at 50XCmax” value ([1]; 50XCmax) was 0 and the “State 4 respiration driven by glutamate/malate at 50XCmax” value ([1]; 50XCmax) was 0. For the same molecule, the “State 4 respiration driven by succinate at 50XCmax” value ([1]; 50XCmax) was 0, the “State 3 respiration driven by glutamate/malate at 100XCmax” value ([1]; 100XCmax) was 0 and the “State 3 respiration driven by succinate at 100XCmax” value ([1]; 100XCmax) was 0. For the same molecule, the “State 4 respiration driven by glutamate/malate at 100XCmax” value ([1]; 100XCmax) was 0, the “State 4 respiration driven by succinate at 100XCmax” value ([1]; 100XCmax) was 0 and the “MMP measured by Rhodamine 123 at 1XCmax” value ([2]; 1XCmax) was 0. The “MMP measured by Rhodamine 123 at 2.5XCmax” value ([2]; 2.5XCmax) was 0, the “MMP measured by Rhodamine 123 at 5XCmax” value ([2]; 5XCmax) was 0 and the “MMP measured by Rhodamine 123 at 10XCmax” value ([2]; 10XCmax) was 0. For the same molecule, the “MMP measured by Rhodamine 123 at 20XCmax” value ([2]; 20XCmax) was 0, the “MMP measured by Rhodamine 123 at 30XCmax” value ([2]; 30XCmax) was 0 and the “MMP measured by Rhodamine 123 at 50XCmax” value ([2]; 50XCmax) was 0. For the same molecule, the “MMP measured by Rhodamine 123 at 100XCmax” value ([2]; 100XCmax) was 0, the “Swelling 1XCmax” value ([3]; 1XCmax) was 0 and the “Swelling 2.5XCmax” value ([3]; 2.5XCmax) was 0. The “Swelling 5XCmax” value ([3]; 5XCmax) was 0, the “Swelling 10XCmax” value ([3]; 10XCmax) was 0 and the “Swelling 20XCmax” value ([3]; 20XCmax) was 0. For the same molecule, the “Swelling 30XCmax” value ([3]; 30XCmax) was 0, the “Swelling 50XCmax” value ([3]; 50XCmax) was 0 and the “Swelling 100XCmax” value ([3]; 100XCmax) was 0. The “RCC IV at 50XCmax” value (RCC IV) was 0, the “RCC III at 100XCmax” value (RCC III) was 0 and the “Cytochrome c release 1XCmax” value ([4]; 1XCmax) was 0. For the same molecule, the “Cytochrome c release 2.5XCmax” value ([4]; 2.5XCmax) was 0, the “Cytochrome c release 5XCmax” value ([4]; 5XCmax) was 0 and the “Cytochrome c release 10XCmax” value ([4]; 10XCmax) was 0. The “Cytochrome c release 20XCmax” value ([4]; 20XCmax) was 0, the “Cytochrome c release 30XCmax” value ([4]; 30XCmax) was 0 and the “Cytochrome c release 50XCmax” value ([4]; 50XCmax) was 0. For the same molecule, the “Cytochrome c release 100XCmax” value ([4]; 100XCmax) was 0, the “ROS measured by CM-H2DCFDA at 1XCmax” value ([5]; 1XCmax) was 0 and the “ROS measured by CM-H2DCFDA at 2.5XCmax” value ([5]; 2.5XCmax) was 0. For the same molecule, the “ROS measured by CM-H2DCFDA at 5XCmax” value ([5]; 5XCmax) was 0, the “ROS measured by CM-H2DCFDA at 10XCmax” value ([5]; 10XCmax) was 0 and the “ROS measured by CM-H2DCFDA at 20XCmax” value ([5]; 20XCmax) was 0. The “ROS measured by CM-H2DCFDA at 30XCmax” value ([5]; 30XCmax) was 0, the “ROS measured by CM-H2DCFDA at 50XCmax” value ([5]; 50XCmax) was 0 and the “ROS measured by CM-H2DCFDA at 100XCmax” value ([5]; 100XCmax) was 0. For the same molecule, the “DILI potential (based on labeling)” value ([6]; 1 DILI positive, 0 negative according to labeling, ref product labeling) was 0, the “DILI potential (based on labeling)” value ([6]; ref FDA product labeling) was 0 and the Cmax [7] was 0.04 µM.
